# Source: US20070026080A1, “Manufacturing process for tigecycline” (Wyeth, priority 2005, published 2007)
# Experiment: Strength and degradation profile of tigecycline 20 mg/mL bulk solutions by reversed phase HPLC (effect of temperature, time, pH, dissolved oxygen; Runs A to O)
# Format: physicochemical
# Details: 20 mg/mL
# Experimental: The contents of the sample vials are dissolved in diluent. The sample solution is diluted, if necessary, and chromatographed on a reversed phase column using gradient elution. Impurities are determined by comparing the impurity peak areas in the sample preparation chromatogram to the average area of tigecycline peaks in the standard preparation chromatograms obtained concomitantly.
# Chromatographic Column—Length about 15 cm, inside diameter about 4.6 mm, packed with Inertsil ODS2, 5 μm size particles or equivalent.
# Detector—Ultraviolet spectrophotometric detector capable of operating at 248 nm with a sensitivity of about 0.5 absorbance units full scale.
# The results of additional studies to investigate the effect of processing parameters such as temperature, time, and dissolved oxygen content on the purity profile of tigecycline solutions using the following materials, methods and procedures are presented in Tables A to O.
# The experiments were run in plastic glove bags under normal laboratory light conditions. Plastic glove boxes will be used to control the headspace of the beakers. The batch size was 200 mL. • 1. Prepare the glove bag with a mixture of nitrogen and air to achieve an oxygen level in the solution as per the design. • 2. Place the jacketed beaker on the magnetic stirrer. Connect it to the cooler. Set the cooler to the desired set point. • 3. Add 200 mL of SWFI in to the beaker. Allow equilibrating. Measure the temperature and oxygen content. When it reaches the desired condition, add accurately weighed API and mix until dissolved. If necessary use spatula to aid dissolution. For pH adjustments, use 4 mL of either 0.1N NaOH or 0.1N HCl and 196 mL of WFI for manufacture. • 4. After complete dissolution, Transfer about 5.5 mL of Solution in vials and stopper them. These vials will be stoppered at the appropriate headspace conditions. Place the vials in appropriate temperature conditions. • 5. Sample the vials at 1, 4, 8, 10, 12 and 24 hours. Send the samples for analysis. Freeze the 10, 12 and 24 samples at −20° C. for analysis the following day. • 6. Measure pH and record color of the solution at each time point. Results
# The 1-hour samples were taken directly from the beakers. Samples for later time points were collected in stoppered vials processed in the atmosphere of the bag in order to simulate the headspace conditions then placed in water baths or refrigerator to maintain there respective temperature conditions. This was done to maintain safety in the lab. Disposable plastic glove bags require constant flow of a mixture of nitrogen and air to maintain headspace oxygen level that will result in the desired dissolved oxygen (DO) content in the sample. The pH of samples was measured at each sample points.
# Strength and degradation profile was analyzed by HPLC as described above. […] Degradation was slightly higher at higher temperature condition.
# [1] = Run #I, 5° C., pH 7.9, Oxygen 1.0 mg/L, hours 1,4,8,10,12,24 at r6-r11, 24 h
# [2] = Run #I, 5° C., pH 7.9, Oxygen 1.0 mg/L, hours 1,4,8,10,12,24 at r17-r22
# [3] = Run #I, 5° C., pH 7.9, Oxygen 1.0 mg/L, hours 1,4,8,10,12,24 at r17-r22, 1 h
# [4] = Run #I, 5° C., pH 7.9, Oxygen 1.0 mg/L, hours 1,4,8,10,12,24 at r17-r22, 4 h
# [5] = Run #I, 5° C., pH 7.9, Oxygen 1.0 mg/L, hours 1,4,8,10,12,24 at r17-r22, 8 h
# [6] = Run #I, 5° C., pH 7.9, Oxygen 1.0 mg/L, hours 1,4,8,10,12,24 at r17-r22, 10 h
# [7] = Run #I, 5° C., pH 7.9, Oxygen 1.0 mg/L, hours 1,4,8,10,12,24 at r17-r22, 24 h
# [8] = Run #J, 8° C., Oxygen = 1.0 mg/mL, hours 1,4,8,12,24 at r6-r10, 1 hours
# [9] = Run #J, 8° C., Oxygen = 1.0 mg/mL, hours 1,4,8,12,24 at r6-r10, 4 hours
# [10] = Run #J, 8° C., Oxygen = 1.0 mg/mL, hours 1,4,8,12,24 at r6-r10, 8 hours
# [11] = Run #J, 8° C., Oxygen = 1.0 mg/mL, hours 1,4,8,12,24 at r6-r10, 12 hours
# [12] = Run #J, 8° C., Oxygen = 1.0 mg/mL, hours 1,4,8,12,24 at r6-r10, 24 hours
# [13] = Run #J, 8° C., hours 1,4,8,12,24 at r6-r10, 1 hours
# [14] = Run #J, 8° C., hours 1,4,8,12,24 at r6-r10, 4 hours
# [15] = Run #J, 8° C., hours 1,4,8,12,24 at r6-r10, 8 hours
# [16] = Run #J, 8° C., hours 1,4,8,12,24 at r6-r10, 12 hours
# [17] = Run #J, 8° C., hours 1,4,8,12,24 at r6-r10, 24 hours
# [18] = Run #K, 2° C., pH 8.2, Oxygen 0.1 mg/L, hours 1,4,8,10,12,24 at r6-r11
# [19] = Run #K, 2° C., pH 8.2, Oxygen 0.1 mg/L, hours 1,4,8,10,12,24 at r6-r11, after 1 hours
# [20] = Run #K, 2° C., pH 8.2, Oxygen 0.1 mg/L, hours 1,4,8,10,12,24 at r6-r11, after 4 hours
# [21] = Run #K, 2° C., pH 8.2, Oxygen 0.1 mg/L, hours 1,4,8,10,12,24 at r6-r11, after 8 hours
# [22] = Run #K, 2° C., pH 8.2, Oxygen 0.1 mg/L, hours 1,4,8,10,12,24 at r6-r11, after 10 hours
# [23] = Run #K, 2° C., pH 8.2, Oxygen 0.1 mg/L, hours 1,4,8,10,12,24 at r6-r11, after 12 hours
structure (smiles),measurement,setting,value
CN(C)c1cc(NC(=O)CNC(C)(C)C)c(O)c2c1C[C@H]1C[C@H]3[C@H](N(C)C)C(O)=C(C(N)=O)C(=O)[C@@]3(O)C(O)=C1C2=O [Tigecycline],Strength,"Run #I, 5° C., pH 7.9, Oxygen 1.0 mg/L, hours 1,4,8,10,12,24 at r6-r11, 12 h",19.151 mg/mL
same,RRT 0.58,[1],0.10%
same,RRT 0.74 Epimer,[1],0.23%
same,Strength,[1],19.242 mg/mL
same,RRT 0.78 MW = 557,[2],BRL (BRL means below reporting limit (meaning less than 0.05% of tigecycline peak))
same,RRT 1.12,[2],BRL (BRL means below reporting limit (meaning less than 0.05% of tigecycline peak))
same,RRT 1.64 Mino,[3],0.13%
same,RRT 1.85 MW = 597,[3],0.06%
same,Total,[3],0.54%
same,RRT 1.64 Mino,[4],0.10%
same,RRT 1.85 MW = 597,[4],0.09%
same,RRT 1.64 Mino,[5],0.09%
same,RRT 1.85 MW = 597,[5],0.08%
same,Total,[5],0.53%
same,RRT 1.64 Mino,[6],0.08%
same,RRT 1.85 MW = 597,[6],0.10%
same,Total,[6],0.98%
same,Total,"Run #I, 5° C., pH 7.9, Oxygen 1.0 mg/L, hours 1,4,8,10,12,24 at r17-r22, 12 h",0.71%
same,RRT 1.64 Mino,[7],0.11%
same,Total,[7],0.96%
same,RRT 1.67 MW = 556,[8],0.09%
same,Strength,[8],19.515 mg/mL
same,RRT 1.67 MW = 556,[9],0.17%
same,Strength,[9],19.469 mg/mL
same,RRT 1.67 MW = 556,[10],0.15%
same,Strength,[10],19.323 mg/mL
same,RRT 1.67 MW = 556,[11],0.19%
same,Strength,[11],19.140 mg/mL
same,RRT 1.67 MW = 556,[12],0.21%
same,Strength,[12],19.152 mg/mL
same,RRT 0.58,[13],0.06%
same,RRT 0.74 Epimer,[13],0.20%
same,RRT 1.45,[13],0.08%
same,RRT 1.85 MW = 597,[13],0.09%
same,Total,[13],0.62%
same,RRT 0.74 Epimer,[14],0.22%
same,RRT 1.45,[14],0.06%
same,RRT 1.64 Mino,[14],0.09%
same,RRT 1.85 MW = 597,[14],0.08%
same,Total,[14],0.90%
same,RRT 1.45,[15],0.07%
same,Total,[15],1.00%
same,RRT 0.74 Epimer,[16],0.24%
same,RRT 1.64 Mino,[16],0.10%
same,RRT 1.85 MW = 597,[16],0.11%
same,Total,[16],1.17%
same,RRT 0.58,[17],0.08%
same,RRT 0.74 Epimer,[17],0.28%
same,RRT 1.45,[17],0.05%
same,RRT 1.64 Mino,[17],0.11%
same,RRT 1.85 MW = 597,[17],0.10%
same,Total,[17],1.76%
same,RRT 0.12 MW = 633,[18],BRL (BRL means below reporting limit (meaning less than 0.05% of tigecycline peak))
same,RRT 0.23 MW = 572,[18],BRL (BRL means below reporting limit (meaning less than 0.05% of tigecycline peak))
same,RRT 0.50 MW = 601,[18],BRL (BRL means below reporting limit (meaning less than 0.05% of tigecycline peak))
same,RRT 0.55 MW = 583,[18],BRL (BRL means below reporting limit (meaning less than 0.05% of tigecycline peak))
same,RRT 0.64 9-Amino,[18],BRL (BRL means below reporting limit (meaning less than 0.05% of tigecycline peak))
same,RRT 0.78 MW = 557,[18],BRL (BRL means below reporting limit (meaning less than 0.05% of tigecycline peak))
same,RRT 1.12,[18],BRL (BRL means below reporting limit (meaning less than 0.05% of tigecycline peak))
same,RRT 1.58,[18],BRL (BRL means below reporting limit (meaning less than 0.05% of tigecycline peak))
same,RRT 1.67 MW = 556,[18],BRL (BRL means below reporting limit (meaning less than 0.05% of tigecycline peak))
same,RRT 0.74 Epimer,[19],0.16%
same,RRT 1.64 Mino,[19],0.12%
same,Strength,[19],19.187 mg/mL
same,Total,[19],0.51%
same,RRT 0.74 Epimer,[20],0.18%
same,RRT 1.64 Mino,[20],0.13%
same,Strength,[20],19.324 mg/mL
same,Total,[20],0.61%
same,RRT 0.58,[21],0.07%
same,Strength,[21],19.127 mg/mL
same,Total,[21],0.63%
same,RRT 0.74 Epimer,[22],0.19%
same,RRT 1.64 Mino,[22],0.15%
same,RRT 1.85 MW = 597,[22],0.10%
same,Strength,[22],20.357 mg/mL
same,Total,[22],0.59%
same,RRT 0.58,[23],0.08%
same,RRT 0.74 Epimer,[23],0.22%
same,RRT 1.45,[23],0.09%
same,RRT 1.64 Mino,[23],0.10%
same,RRT 1.85 MW = 597,[23],0.09%
same,Strength,[23],19.956 mg/mL
same,Total,[23],0.56%
